Laboratory results taken from the CheMixHub ionic liquid set.

Assay: xn = mol fraction of the nth substance listed

CCC[N+]1(C)CCCC1.O=S(=O)([N-]S(=O)(=O)C(F)(F)F)C(F)(F)F + CCCCCCCCCCCCCC[P+](CCCCCC)(CCCCCC)CCCCCC.O=S(=O)([N-]S(=O)(=O)C(F)(F)F)C(F)(F)F
313.15 K, 101 kPa, x2 = 0.75
Details | electrical conductivity [S/m] | viscosity [mPa·s]
– | 0.0308 | 135

O + CCCCCCCCCCCCCC[n+]1ccccc1.O=C([O-])C(O)c1ccccc1
101 kPa, x2 = 0
Details | electrical conductivity [S/m]
293.15 K | 0.00012
298.15 K | 0.00015
303.15 K | 0.00016
308.15 K | 0.00017
313.15 K | 0.00019

O + CCCCCCCCCCCCCC[n+]1ccccc1.O=C([O-])C(O)c1ccccc1 + CC(C)C[C@H](N)C(=O)O
101 kPa, x2 = 0, x3 = 0
Details | electrical conductivity [S/m]
293.15 K | 0.00012
298.15 K | 0.00015
303.15 K | 0.00016
308.15 K | 0.00017
313.15 K | 0.00019

O + CCCCCCCCCCCCCC[n+]1ccccc1.O=C([O-])C(O)c1ccccc1 + CC(C)[C@H](N)C(=O)O
101 kPa, x2 = 0, x3 = 0
Details | electrical conductivity [S/m]
293.15 K | 0.00012
298.15 K | 0.00015
303.15 K | 0.00016
308.15 K | 0.00017
313.15 K | 0.00019

O + CCCCCCCCCCCCCC[n+]1ccccc1.O=C([O-])C(O)c1ccccc1 + C[C@H](N)C(=O)O
101 kPa, x2 = 0, x3 = 0
Details | electrical conductivity [S/m]
293.15 K | 0.00012
298.15 K | 0.00015
303.15 K | 0.00016
308.15 K | 0.00017
313.15 K | 0.00019

O + CCCCCCCCCCCCCC[n+]1ccccc1.O=C([O-])C(O)c1ccccc1 + NCC(=O)NCC(=O)O
101 kPa, x2 = 0, x3 = 0
Details | electrical conductivity [S/m]
293.15 K | 0.00012
298.15 K | 0.00015
303.15 K | 0.00016
308.15 K | 0.00017
313.15 K | 0.00019

O + CCCCCCCCCCCCCC[n+]1ccccc1.O=C([O-])C(O)c1ccccc1 + NCC(=O)O
101 kPa, x2 = 0, x3 = 0
Details | electrical conductivity [S/m]
293.15 K | 0.00012
298.15 K | 0.00015
303.15 K | 0.00016
308.15 K | 0.00017
313.15 K | 0.00019

O + CCCCCCCCCCCCCCn1cc[n+](C)c1.[Br-] + CC[N+](CC)(CC)CC.[Br-]
101 kPa, frequency 0.001 MHz, x2 = 0, x3 = 0
Details | electrical conductivity [S/m]
298.15 K | 0.00046
308.15 K | 0.00115
318.15 K | 0.00157

O + CCCCCCCCCCCCOS(=O)(=O)[O-].[Na+] + CCCCCCCCCCCCCCCC[N+](C)(C)C.[Br-]
Details | electrical conductivity [S/m]
298.15 K, 101 kPa, frequency 0.001 MHz, x2 = 0, x3 = 0 | 0.000321

NCC(=O)NCC(=O)O + CCCCCCCCCCCC[N+](C)(C)C.[Br-] + O
100 kPa
Details | electrical conductivity [S/m]
293.15 K, x1 = 0.0001801, x2 = 0.0003553 | 0.093
293.15 K, x1 = 0.0001801, x2 = 0.0003787 | 0.095
293.15 K, x1 = 0.0001801, x2 = 0.0004256 | 0.099
293.15 K, x1 = 0.0001802, x2 = 2.706e-05 | 0.0098
298.15 K, x1 = 9.009e-05, x2 = 2.704e-05 | 0.0082
298.15 K, x1 = 0.0001801, x2 = 0.0003553 | 0.096
298.15 K, x1 = 0.0001801, x2 = 0.0003787 | 0.097
298.15 K, x1 = 0.0001801, x2 = 0.0004021 | 0.099
303.15 K, x1 = 1.802e-05, x2 = 2.703e-05 | 0.0078
303.15 K, x1 = 9.009e-05, x2 = 2.704e-05 | 0.0097
308.15 K, x1 = 1.802e-05, x2 = 2.703e-05 | 0.0082
308.15 K, x1 = 9.005e-05, x2 = 0.0004487 | 0.098
313.15 K, x1 = 1.801e-05, x2 = 0.0005368 | 0.093
313.15 K, x1 = 1.802e-05, x2 = 2.703e-05 | 0.0087
313.15 K, x1 = 9.006e-05, x2 = 0.0004019 | 0.098
313.15 K, x1 = 0.0001801, x2 = 0.0003318 | 0.099

O=C([O-])[O-].[Na+].[Na+] + CCCCCCCCCCCC[N+](C)(C)C.[Br-] + O
298.15 K, 101 kPa
Details | electrical conductivity [S/m]
x1 = 0.0001801, x2 = 7.809e-05 | 0.2221
x1 = 0.0001801, x2 = 8.963e-05 | 0.2267
x1 = 0.0001801, x2 = 0.000101 | 0.2313
x1 = 0.0001801, x2 = 0.0001125 | 0.2359
x1 = 0.0001801, x2 = 0.0001241 | 0.2404
x1 = 0.0001801, x2 = 0.0001356 | 0.2449
x1 = 0.0001801, x2 = 0.0001466 | 0.2493
x1 = 0.0001801, x2 = 0.000158 | 0.2537
x1 = 0.0001801, x2 = 0.000169 | 0.2579
x1 = 0.0001801, x2 = 0.00018 | 0.2622
x1 = 0.0001801, x2 = 0.0001908 | 0.2663
x1 = 0.0001801, x2 = 0.0002018 | 0.2705
x1 = 0.0001801, x2 = 0.0002126 | 0.2745
x1 = 0.0001801, x2 = 0.0002234 | 0.278
x1 = 0.0001801, x2 = 0.000234 | 0.2806
x1 = 0.0001801, x2 = 0.0002447 | 0.2825
x1 = 0.0001801, x2 = 0.0002551 | 0.2841
x1 = 0.0001801, x2 = 0.0002658 | 0.2855
x1 = 0.0001801, x2 = 0.0002762 | 0.2868
x1 = 0.0001801, x2 = 0.0002867 | 0.288
x1 = 0.0001801, x2 = 0.0002986 | 0.2893
x1 = 0.0001801, x2 = 0.0003116 | 0.2908
x1 = 0.0001801, x2 = 0.000342 | 0.2939
x1 = 0.0001802, x2 = 0 | 0.1927
x1 = 0.0001802, x2 = 2.16e-06 | 0.1931
x1 = 0.0001802, x2 = 4.51e-06 | 0.1938
x1 = 0.0001802, x2 = 7.94e-06 | 0.1951
x1 = 0.0001802, x2 = 1.154e-05 | 0.1963
x1 = 0.0001802, x2 = 1.659e-05 | 0.1981
x1 = 0.0001802, x2 = 2.309e-05 | 0.2004
x1 = 0.0001802, x2 = 3.174e-05 | 0.2037
x1 = 0.0001802, x2 = 4.31e-05 | 0.2082
x1 = 0.0001802, x2 = 5.483e-05 | 0.2128
x1 = 0.0001802, x2 = 6.655e-05 | 0.2175
x1 = 0.001798, x2 = 0.0001498 | 1.359
x1 = 0.001798, x2 = 0.0001618 | 1.363
x1 = 0.001798, x2 = 0.0001776 | 1.367
x1 = 0.001798, x2 = 0.0001934 | 1.371
x1 = 0.001798, x2 = 0.000209 | 1.374
x1 = 0.001798, x2 = 0.0002246 | 1.377
x1 = 0.001798, x2 = 0.0002401 | 1.38
x1 = 0.001798, x2 = 0.0002555 | 1.383
x1 = 0.001798, x2 = 0.0002702 | 1.386
x1 = 0.001798, x2 = 0.0002851 | 1.389
x1 = 0.001798, x2 = 0.0003037 | 1.393
x1 = 0.001798, x2 = 0.0003216 | 1.396
x1 = 0.001798, x2 = 0.0003394 | 1.399
x1 = 0.001798, x2 = 0.0003576 | 1.402
x1 = 0.001798, x2 = 0.0003752 | 1.405
x1 = 0.001798, x2 = 0.0003925 | 1.408
x1 = 0.001799, x2 = 0 | 1.335
x1 = 0.001799, x2 = 8.18e-06 | 1.333
x1 = 0.001799, x2 = 1.563e-05 | 1.333
x1 = 0.001799, x2 = 2.381e-05 | 1.333
x1 = 0.001799, x2 = 3.217e-05 | 1.333
x1 = 0.001799, x2 = 4.072e-05 | 1.334
x1 = 0.001799, x2 = 5.126e-05 | 1.335
x1 = 0.001799, x2 = 6.398e-05 | 1.338
x1 = 0.001799, x2 = 7.671e-05 | 1.34
x1 = 0.001799, x2 = 8.888e-05 | 1.343
x1 = 0.001799, x2 = 0.0001014 | 1.346
x1 = 0.001799, x2 = 0.0001138 | 1.349
x1 = 0.001799, x2 = 0.000126 | 1.352
x1 = 0.001799, x2 = 0.0001379 | 1.355

C[C@H](N)C(=O)O + CCCCCCCCCCCC[N+](C)(C)Cc1ccccc1.[Cl-] + O
electrical conductivity [S/m], 101 kPa
Details | 293.15 K | 298.15 K | 303.15 K | 308.15 K | 313.15 K
x1 = 0.000902, x2 = 0 | 0.0002 | 0.000236 | 0.000271 | 0.00031 | 0.000356
x1 = 0.001774, x2 = 0 | 0.000272 | 0.000323 | 0.000378 | 0.000442 | 0.000511

NCC(=O)NCC(=O)O + CCCCCCCCCCCC[N+](C)(C)Cc1ccccc1.[Cl-] + O
101 kPa, x1 = 0.0008948, x2 = 0
Details | electrical conductivity [S/m]
293.15 K | 0.00137
298.15 K | 0.00165
303.15 K | 0.00198
308.15 K | 0.00239
313.15 K | 0.00284

CC(C)[C@H]1CC[C@H](C)C[C@@H]1O + CCCCCCCC[N+](CCCCCCCC)(CCCCCCCC)CCCCCCCC.[Br-] + [Cl-].[Cl-].[Co+2]
296.1 K, 101.3 kPa
Details | viscosity [mPa·s]
x2 = 0.2857, x3 = 0.1429 | 11900
x2 = 0.4, x3 = 0.2 | 22000
x2 = 0.4286, x3 = 0.1429 | 17800

CCCCCC[n+]1ccn(C)c1.c1nnn[n-]1 + CCCCCCCC[P+](CC)(CC)CC.O=S(=O)([N-]S(=O)(=O)C(F)(F)F)C(F)(F)F
100 kPa
Details | viscosity [mPa·s]
278.15 K, x2 = 0.301 | 990
283.15 K, x2 = 0.597 | 409
283.15 K, x2 = 0.697 | 347
288.15 K, x2 = 0.4 | 414
298.15 K, x2 = 0.597 | 156
303.15 K, x2 = 0.4 | 156
303.15 K, x2 = 0.5 | 129
303.15 K, x2 = 0.899 | 90
308.15 K, x2 = 0.5 | 100
308.15 K, x2 = 0.597 | 93
308.15 K, x2 = 0.697 | 82
313.15 K, x2 = 0.697 | 66
318.15 K, x2 = 0.301 | 77
318.15 K, x2 = 0.4 | 74
318.15 K, x2 = 0.597 | 61
323.15 K, x2 = 0.1 | 86
323.15 K, x2 = 0.5 | 52

O + CCCCCCCC[n+]1ccc(C)cc1.[Br-]
100 kPa, frequency 0.003 MHz, x2 = 0
Details | electrical conductivity [S/m]
288.15 K | 0.0001
308.15 K | 0.00022
